# Measured values: article PMC6143625, “A high throughput screen for next-generation leads targeting malaria parasite transmission” (Nature Communications, 2018)
# Experiments:
# HepG2 human cells = tested on: HepG2 human cells; design: method as in http://dx.doi.org/10.6019/CHEMBL3507680; details: ref http://dx.doi.org/10.6019/CHEMBL3507680; cited from earlier work
# [1] = tested on: P. falciparum 3D7 asexual blood stages; experiment: Whole-cell time extended asexual growth assay (pLDH); type: cell-based; details: Plasmodium falciparum, 72 h; for IC50: dose response retest, read-out: IC50 (µM) Asex stages; for inhibition at 2 µM: primary screen, read-out: %Inh Asex stages @2uM
# Description: Asexual activity was assayed via Plasmodium lactate dehydrogenase activity (pLDH), a surrogate of asexual parasite growth. […] 2 µM artesunate and DMSO were used as the positive and negative controls, respectively. […] After plate mixing, NBT reduction was measured by absorbance at 650 nm using Envision (Perkin Elmer).
SMILES,%Inh HepG2 @10uM (HepG2 human cells) [%],IC50 [1] [µM],inhibition at 2 µM [1] [%]
CCCc1cncnc1N1CCC(NCc2cc3ccccc3[nH]2)CC1 [DDD01254125],8.09,2.43,35.4
CNc1nc(C)cc(NC2CCCN(C3Cc4ccccc4C3)C2)n1 (stereo not drawn) [DDD01254555],14.91,1.97,91.2
Cc1noc(C)c1CN(C)c1nc(C2CCCC2)nc2c1cnn2C [DDD01254835],9.62,2.56,57.1
CNC(=O)c1cn2cc(-c3ccccc3Cl)n(CC=C(C)C)c(=O)c2n1 [DDD01255495],35.09,6.64,43.8
Cc1cnc(C)c(N2CCN(CCCc3ccncc3)CC2)n1 [DDD01256723],6.37,3.29,48
NCC(=O)N1CCCC1c1ccc(C(=O)NCc2ccoc2)s1 (stereo not drawn) [DDD01257217],-2.34,2.73,34.1
CSCCNC(=O)c1ccc(OC2CCN(CC(C)(C)C)CC2)c(Cl)c1 [DDD01257510],-7.80,5.38,38.4
Cc1nc[nH]c1CN(C)CC1CCCN(CCc2ccc(Cl)cc2)C1 (stereo not drawn) [DDD01257555],20.49,2.44,66.5
COc1cccc(CN2CCCC(Nc3cccc(F)c3)C2)c1O (stereo not drawn) [DDD01257695],-4.92,2.56,55.2
CN(Cc1cccc(O)c1)CC1CCCN(CCc2ccc(Cl)cc2)C1 (stereo not drawn) [DDD01257948],10.17,1.79,92.9
CCC1CN(C(=O)c2ccc(Cl)cc2O)CCN1C(C)C (stereo not drawn) [DDD01258121],-6.93,2.83,48.6
CCc1c(C)nc2cc(C3CCN(Cc4ccccc4F)C3)nn2c1O (stereo not drawn) [DDD01270117],-2.56,6.27,43.5
Cc1cc(C)n(C2CN(CC(O)c3cc(F)ccc3F)C2)n1 (stereo not drawn) [DDD01298957],6.16,1.27,74.5
CCNC(=O)C(C)NC(=O)c1cnc(-c2ccc(C)cc2C)s1 (stereo not drawn) [DDD01300473],1.57,2.86,37
Cc1nc2ccccc2nc1CN1CCCC1Cn1cccn1 (stereo not drawn) [DDD01301355],20.57,8.56,31
CN(Cc1ncc(C(C)(C)C)o1)CC1CCCN1c1cccnn1 (stereo not drawn) [DDD01301524],23.44,5.73,31.2
CC(C)c1cc(NC(=O)c2ccc(C(=O)NC(C)(C)C)cc2)[nH]n1 [DDD01301645],-4.05,4.02,33.2
CCC(C)(C)NC(=O)CN(C)C(c1cccc(F)c1)c1ccccn1 (stereo not drawn) [DDD01301778],0.64,6.7,30.8
Cc1ccc(Cl)cc1N1CCC(CNC(=O)CCn2ccnc2)C1 (stereo not drawn) [DDD01302767],-10.10,3.83,33.8
COc1ccc(CNCC2CCN(CC(C)O)CC2)c2ccccc12 (stereo not drawn) [DDD01302860],29.84,2.69,39.2
Cc1cc(C)n(C2CN(CC(O)c3ccc4c(c3)OCO4)C2)n1 (stereo not drawn) [DDD01303662],-2.16,7.81,40.2
CC(C)c1nn(C)c(Cl)c1CNCC(O)c1cccc(F)c1.Cl (stereo not drawn) [DDD01304823],-10.30,3.62,34.2
Cc1nc(CN2CCCC(N(C)Cc3c(C)noc3C)C2)no1 (stereo not drawn) [DDD01304956],10.61,3.93,31.2
O=C1CCCCN1c1cccc(CNC2CCCC2)c1 [DDD01305031],-17.90,6.03,31.2
